Tests used:
TNF = assay: Whole blood cytokine release, TNF (ELISA); type: cell-based; conditions: diluted human whole blood, LPS 1.5 ng/ml, 18 h, mean ± 95% confidence intervals; for inhibition at 25 µM / inhibition at 50 µM / inhibition at 100 µM: read-out: % Inhibition of cytokine release, relative to vehicle: TNF
Experimental: (§1) Fresh, anonymized, heparinized, human blood from male donors was diluted 1:3 with RPMI containing penicillin and streptomycin. 150 μl diluted blood was added to each well of a 96 well plate then acclimatized to 37° C. and 5% CO2 for 1 hour. Inhibitors were prepared as described below then added to the diluted blood in 25 μl volume. After a further hour at 37° C. with 5% CO2, diluted blood was stimulated with LPS diluted in 25 μl RPMI containing penicillin and streptomycin to a final concentration of 1.5 ng/ml. After 18 h at 37° C. and 5% CO2, diluted blood was centrifuged at 500×g for 5 min and supernatant collected and stored at −20° C. until ELISAs were performed. Data are presented as mean inhibition relative to vehicle control ±95% confidence intervals, n=3-4 independent experiments.
(§2) Inhibitors and vehicles used for resuspension were: Compound 26, EMD Millipore, Cat #5.31237.0001, resuspended in DMSO; PF 06650833, R & D Systems, Cat #6373, resuspended in DMSO; OEPC (oleyloxyethyl phosphorylcholine), Santa Cruz Biotechnology, item # sc-200711, resuspended in DMSO; YM26734, Santa Cruz Biotechnology, item # sc-204410, resuspended in DMSO; Isoquercetin, Cayman Chemical, item #24926, resuspended in DMSO; ISA-2011B, Medchem Express, cat # HY-16937, resuspended in DMSO; Benzamil, TOCRIS, Cat #3380/10, resuspended in water; Cell permeable NFAT inhibitor (11R-VIVIT), Tocris, Cat #5710, resuspended in PBS. ELISAs were performed using Duoset reagents from R&D systems, catalogue # DY210 (human TNF), # DY206 (human IL6), and #DY201 (human IL-1β).

IL6 = assay: Whole blood cytokine release, IL6 (ELISA); type: cell-based; conditions: diluted human whole blood, LPS 1.5 ng/ml, 18 h, mean ± 95% confidence intervals; for inhibition at 25 µM / inhibition at 50 µM / inhibition at 100 µM: read-out: % Inhibition of cytokine release, relative to vehicle: IL6
Experimental: as §1, §2

IL1β = assay: Whole blood cytokine release, IL-1β (ELISA); type: cell-based; conditions: diluted human whole blood, LPS 1.5 ng/ml, 18 h, mean ± 95% confidence intervals; for inhibition at 25 µM / inhibition at 50 µM / inhibition at 100 µM: read-out: % Inhibition of cytokine release, relative to vehicle: IL1β
Experimental: as §1, §2

[1] = test system: proinflammatory cytokine release; assay: Whole blood cytokine release assay, cytokines not itemised; type: cell-based, human; conditions: for Effect on (proinflammatory) cytokine release in whole blood assay (in words): in response to LPS stimulation
Experimental: as §1, §2
Where direct chemical modulators of the proposed inflammatory modulators were available, we tested their effect on endothelial permeability using ECIS and/or on the leukocyte inflammatory response using the whole blood assay described above.
Agents used were SJ000291942 (Sigma #SML2087-5MG) and saxagliptin (Santa Cruz Biotechnology #sc-473161), both resuspended in DMSO.

[2] = target: NFATC2 (Nuclear Factor Of Activated T Cells 2) (human)

## O=c1c(O[C@@H]2O[C@H](CO)[C@@H](O)[C@H](O)[C@H]2O)c(-c2ccc(O)c(O)c2)oc2cc(O)cc(O)c12 [Isoquertecin, Isoquercetin]
TNF; 25 μM
  inhibition at 25 µM: 9%
TNF; 50 μM
  inhibition at 50 µM: 23%
TNF; 100 μM
  inhibition at 100 µM: 29%
IL6; 25 μM
  inhibition at 25 µM: 26%
IL6; 50 μM
  inhibition at 50 µM: 31%
IL6; 100 μM
  inhibition at 100 µM: 26%
IL1β; 25 μM
  inhibition at 25 µM: 15%
IL1β; 50 μM
  inhibition at 50 µM: 25%
IL1β; 100 μM
  inhibition at 100 µM: 19%

## NC(=NCc1ccccc1)NC(=O)c1nc(Cl)c(N)nc1N [Benzamil]
TNF; 25 μM
  inhibition at 25 µM: 4%
TNF; 50 μM
  inhibition at 50 µM: 23%
TNF; 100 μM
  inhibition at 100 µM: 69%
IL6; 25 μM
  inhibition at 25 µM: 11%
IL6; 50 μM
  inhibition at 50 µM: 22%
IL6; 100 μM
  inhibition at 100 µM: 65%
IL1β; 25 μM
  inhibition at 25 µM: 32%
IL1β; 50 μM
  inhibition at 50 µM: 48%
IL1β; 100 μM
  inhibition at 100 µM: 60%

## CCCCCCCC/C=C\CCCCCCCCOCCOP(=O)([O-])OCC[N+](C)(C)C [OEPC, oleyloxyethyl phosphorylcholine]
TNF; 12.5 μM
  % Inhibition of cytokine release, relative to vehicle: TNF: −9% ± 17.3%
TNF; 25 μM
  % Inhibition of cytokine release, relative to vehicle: TNF: 6% ± 17.4%
TNF; 50 μM
  % Inhibition of cytokine release, relative to vehicle: TNF: 37% ± 14.7%
TNF; 100 μM
  % Inhibition of cytokine release, relative to vehicle: TNF: 57% ± 6.5%
IL6; 12.5 μM
  % Inhibition of cytokine release, relative to vehicle: IL6: −3% ± 17.6%
IL6; 25 μM
  % Inhibition of cytokine release, relative to vehicle: IL6: 39% ± 14.1%
IL6; 50 μM
  % Inhibition of cytokine release, relative to vehicle: IL6: 65% ± 11.7%
IL6; 100 μM
  % Inhibition of cytokine release, relative to vehicle: IL6: 83% ± 6.2%

## 11R-VIVIT
TNF; 12.5 μM
  % Inhibition of cytokine release, relative to vehicle: TNF: 23% ± 12.2%
TNF; 25 μM
  % Inhibition of cytokine release, relative to vehicle: TNF: 40% ± 7.1%
TNF; 50 μM
  % Inhibition of cytokine release, relative to vehicle: TNF: 79% ± 14.3%
IL6; 12.5 μM
  % Inhibition of cytokine release, relative to vehicle: IL6: −10% ± 16.7%
IL6; 25 μM
  % Inhibition of cytokine release, relative to vehicle: IL6: 2% ± 32.9%
IL6; 50 μM
  % Inhibition of cytokine release, relative to vehicle: IL6: 87% ± 17.9%
IL1β; 12.5 μM
  % Inhibition of cytokine release, relative to vehicle: IL1β: 32% ± 13.0%
IL1β; 25 μM
  % Inhibition of cytokine release, relative to vehicle: IL1β: 48% ± 27.4%
IL1β; 50 μM
  % Inhibition of cytokine release, relative to vehicle: IL1β: 51% ± 26.3%

## CN1CC(=O)N2[C@H](c3c[nH]c4ccc(Cl)cc34)c3cc4c(cc3C[C@H]2C1=O)OCO4 [ISA-2011B]
TNF; 1 μM
  % Inhibition of cytokine release, relative to vehicle: TNF: 1% ± 11.2%
TNF; 10 μM
  % Inhibition of cytokine release, relative to vehicle: TNF: 17% ± 7.6%
TNF; 100 μM
  % Inhibition of cytokine release, relative to vehicle: TNF: 55% ± 8.8%
IL6; 1 μM
  % Inhibition of cytokine release, relative to vehicle: IL6: −7% ± 7.7%
IL6; 10 μM
  % Inhibition of cytokine release, relative to vehicle: IL6: 6% ± 19.7%
IL6; 100 μM
  % Inhibition of cytokine release, relative to vehicle: IL6: 24% ± 19.5%
IL1β; 1 μM
  % Inhibition of cytokine release, relative to vehicle: IL1β: 17% ± 9%
IL1β; 10 μM
  % Inhibition of cytokine release, relative to vehicle: IL1β: 23% ± 6%
IL1β; 100 μM
  % Inhibition of cytokine release, relative to vehicle: IL1β: 86% ± 2.9%
[1]
  Effect on (proinflammatory) cytokine release in whole blood assay (in words): inhibits cytokine release

## CCc1ccc(OCC(=O)Nc2ccc(F)c([N+](=O)[O-])c2)cc1 [SJ000291942]
[1]; whole blood with and without LPS, BMP receptor signaling agonist, FIG. 81C
  Proinflammatory cytokine secretion from whole blood (in words): enhances proinflammatory cytokine secretion

## Cell permeable NFAT inhibitor (11R-VIVIT) (peptide)
[2]
  % Inhibition of cytokine release, relative to vehicle (TNF; LPS-stimulated human whole blood, 50 µM 11R-VIVIT): 79%

## CCCCCCCCCCCCCCCCCCc1ccc(C(=O)/C=C/C(=O)O)cc1 [OBAA]
[1]
  Effect on (proinflammatory) cytokine release in whole blood assay (in words): dose-dependent inhibition

## CCCCCCCCCCCC(=O)c1c(O)c(C(=O)CCCCCCCCCCC)c(O)c(C2CC(c3ccc(O)cc3)Oc3cc(O)ccc32)c1O (stereo not shown) [YM26734]
TNF; 12.5 μM
  % Inhibition of cytokine release, relative to vehicle: TNF: 41% ± 17.6%
TNF; 25 μM
  % Inhibition of cytokine release, relative to vehicle: TNF: 55% ± 22.6%
TNF; 50 μM
  % Inhibition of cytokine release, relative to vehicle: TNF: 64% ± 26.1%
TNF; 100 μM
  % Inhibition of cytokine release, relative to vehicle: TNF: 52% ± 22.7%
IL6; 12.5 μM
  % Inhibition of cytokine release, relative to vehicle: IL6: 35% ± 18.8%
IL6; 25 μM
  % Inhibition of cytokine release, relative to vehicle: IL6: 51% ± 29.5%
IL6; 50 μM
  % Inhibition of cytokine release, relative to vehicle: IL6: 67% ± 21.7%
IL6; 100 μM
  % Inhibition of cytokine release, relative to vehicle: IL6: 67% ± 15.1%
IL1β; 12.5 μM
  % Inhibition of cytokine release, relative to vehicle: IL1β: 51% ± 12.0%
IL1β; 25 μM
  % Inhibition of cytokine release, relative to vehicle: IL1β: 65% ± 3.5%
IL1β; 50 μM
  % Inhibition of cytokine release, relative to vehicle: IL1β: 73% ± 11.3%
IL1β; 100 μM
  % Inhibition of cytokine release, relative to vehicle: IL1β: 78% ± 8.9%
[1]
  Effect on (proinflammatory) cytokine release in whole blood assay (in words): dose-dependent inhibition
